Measured values reported in ChEMBL document CHEMBL3399926, “Synthesis and structure-activity relationships of boswellic acid derivatives as potent VEGFR-2 inhibitors” (Bioorg Med Chem, 2015).

What was measured:
HUVEC [1] = experiment: Antiproliferation activity against HUVEC cells after 48 hrs by CCK-8 assay; assay type: functional, cell-based; details: Homo sapiens
HUVEC [2] = experiment: Induction of apoptosis in HUVEC cells; assay type: functional, cell-based; details: Homo sapiens

Structure (SMILES): C[C@H]1[C@H](C)CC[C@]2(C)CC[C@]3(C)C(=CC(=O)[C@@H]4[C@@]5(C)Cc6cnn(C(=O)c7ccccc7)c6[C@](C)(C(=O)O)[C@@H]5CC[C@]43C)[C@H]12
- IC50 (HUVEC [1]): 6.31 µM

Structure (SMILES): CC(=O)O[C@@H]1CC[C@]2(C)[C@H]3C(=O)C=C4[C@@H]5[C@@H](C)[C@H](C)CC[C@]5(C)CC[C@@]4(C)[C@]3(C)CC[C@H]2[C@@]1(C)C#N
- IC50 (HUVEC [1]): > 100 µM

Structure (SMILES): CC(=O)O[C@H]1CC[C@@]2(C)[C@@H](CC[C@]3(C)[C@@H]2C(=O)C=C2[C@@H]4[C@@H](C)[C@H](C)CC[C@]4(C)CC[C@]23C)[C@@]1(C)C(=O)O
- IC50 (HUVEC [1]): 35.8 µM

Structure (SMILES): CC(=O)O[C@@H]1CC[C@@]2(C)[C@@H](CC[C@]3(C)[C@@H]2C(=O)C=C2[C@@H]4[C@@H](C)[C@H](C)CC[C@]4(C)CC[C@]23C)[C@@]1(C)C(=O)N1CCN(C)CC1
- IC50 (HUVEC [1]): 70.3 µM

Structure (SMILES): CC(=O)O[C@@H]1CC[C@@]2(C)[C@@H](CC[C@]3(C)[C@@H]2C(=O)C=C2[C@@H]4[C@@H](C)[C@H](C)CC[C@]4(C)CC[C@]23C)[C@@]1(C)C(=O)N1CCCCC1
- IC50 (HUVEC [1]): 35.8 µM

Structure (SMILES): COC(=O)[C@]1(C)[C@@H]2CC[C@]3(C)[C@H](C(=O)C=C4[C@@H]5[C@@H](C)[C@H](C)CC[C@]5(C)CC[C@]43C)[C@@]2(C)CC[C@H]1OC(C)=O
- IC50 (HUVEC [1]): 4.6 µM

Structure (SMILES): C[C@H]1[C@H](C)CC[C@]2(C)CC[C@]3(C)C(=CC(=O)[C@@H]4[C@@]5(C)Cc6cn[nH]c6[C@](C)(C(=O)O)[C@@H]5CC[C@]43C)[C@H]12
- Activity (HUVEC [2]): Dose-dependent effect
- IC50 (HUVEC [1]): 2.13 µM

Structure (SMILES): CC(C)COC(=O)n1ncc2c1[C@](C)(C(=O)O)[C@@H]1CC[C@]3(C)[C@H](C(=O)C=C4[C@@H]5[C@@H](C)[C@H](C)CC[C@]5(C)CC[C@]43C)[C@@]1(C)C2
- IC50 (HUVEC [1]): 3.12 µM

Structure (SMILES): C[C@H]1[C@H](C)CC[C@]2(C)CC[C@]3(C)C(=CC(=O)[C@@H]4[C@@]5(C)Cc6cnoc6[C@](C)(C(=O)O)[C@@H]5CC[C@]43C)[C@H]12
- IC50 (HUVEC [1]): 9.92 µM

Structure (SMILES): C[C@H]1[C@H](C)CC[C@]2(C)CC[C@]3(C)C(=CC(=O)[C@@H]4[C@@]5(C)CC/C(=N\O)[C@](C)(C(=O)O)[C@@H]5CC[C@]43C)[C@H]12
- IC50 (HUVEC [1]): 10.8 µM

Structure (SMILES): CC(=O)N[C@H]1CC[C@@]2(C)[C@@H](CC[C@]3(C)[C@@H]2C(=O)C=C2[C@@H]4[C@@H](C)[C@H](C)CC[C@]4(C)CC[C@]23C)[C@@]1(C)C(=O)O
- IC50 (HUVEC [1]): 47.5 µM

Structure (SMILES): C[C@H]1[C@H](C)CC[C@]2(C)CC[C@]3(C)C(=CC(=O)[C@@H]4[C@@]5(C)CC[C@H](O)[C@](C)(C(=O)O)[C@@H]5CC[C@]43C)[C@H]12
- IC50 (HUVEC [1]): 27.2 µM

Structure (SMILES): C[C@H]1[C@H](C)CC[C@]2(C)CC[C@]3(C)C(=CC(=O)[C@@H]4[C@@]5(C)CC[C@H](N)[C@](C)(C(=O)O)[C@@H]5CC[C@]43C)[C@H]12
- IC50 (HUVEC [1]): 5.32 µM

Structure (SMILES): CC(=O)O[C@@H]1CC[C@@]2(C)[C@@H](CC[C@]3(C)[C@@H]2C(=O)C=C2[C@@H]4[C@@H](C)[C@H](C)CC[C@]4(C)CC[C@]23C)[C@@]1(C)C(N)=O
- IC50 (HUVEC [1]): 5.02 µM

Structure (SMILES): CO/N=C1\CC[C@@]2(C)[C@@H](CC[C@]3(C)[C@@H]2C(=O)C=C2[C@@H]4[C@@H](C)[C@H](C)CC[C@]4(C)CC[C@]23C)[C@@]1(C)C(=O)O
- IC50 (HUVEC [1]): 13.1 µM

Structure (SMILES): C[C@H]1[C@H](C)CC[C@]2(C)CC[C@]3(C)C(=CC(=O)[C@@H]4[C@@]5(C)Cc6c([nH]c7ccccc67)[C@](C)(C(=O)O)[C@@H]5CC[C@]43C)[C@H]12
- IC50 (HUVEC [1]): 8.22 µM

Structure (SMILES): CC(=O)O[C@@H]1CC[C@@]2(C)[C@@H](CC[C@]3(C)[C@@H]2C(=O)C=C2[C@@H]4[C@@H](C)[C@H](C)CC[C@]4(C)CC[C@]23C)[C@@]1(C)C(=O)NC1CCNCC1
- IC50 (HUVEC [1]): 8.23 µM

Structure (SMILES): CCNC(=O)n1ncc2c1[C@](C)(C(=O)O)[C@@H]1CC[C@]3(C)[C@H](C(=O)C=C4[C@@H]5[C@@H](C)[C@H](C)CC[C@]5(C)CC[C@]43C)[C@@]1(C)C2
- IC50 (HUVEC [1]): 5.8 µM

Structure (SMILES): CC(=O)O[C@@H]1CC[C@@]2(C)[C@@H](CC[C@]3(C)[C@@H]2C(=O)C=C2[C@@H]4[C@@H](C)[C@H](C)CC[C@]4(C)CC[C@]23C)[C@@]1(C)C(=O)Nc1ccncc1
- IC50 (HUVEC [1]): > 100 µM

Structure (SMILES): CC(=O)O[C@@H]1CC[C@@]2(C)[C@@H](CC[C@]3(C)[C@@H]2C(=O)C=C2[C@@H]4[C@@H](C)[C@H](C)CC[C@]4(C)CC[C@]23C)[C@@]1(C)C(=O)NCCN
- IC50 (HUVEC [1]): 3.76 µM

Structure (SMILES): C[C@H]1[C@H](C)CC[C@]2(C)CC[C@]3(C)C(=CC(=O)[C@@H]4[C@@]5(C)Cc6cnn(C(=O)Nc7ccccc7)c6[C@](C)(C(=O)O)[C@@H]5CC[C@]43C)[C@H]12
- IC50 (HUVEC [1]): 9.11 µM

Structure (SMILES): CC(=O)O[C@@H]1CC[C@@]2(C)[C@@H](CC[C@]3(C)[C@@H]2C(=O)C=C2[C@@H]4[C@@H](C)[C@H](C)CC[C@]4(C)CC[C@]23C)[C@@]1(C)C(=O)O [AKBA]
- IC50 (HUVEC [1]): 7.45 µM

Structure (SMILES): CC(=O)O[C@@H]1CC[C@@]2(C)[C@@H](CC[C@]3(C)[C@@H]2C(=O)C=C2[C@@H]4[C@@H](C)[C@H](C)CC[C@]4(C)CC[C@]23C)[C@@]1(C)C(=O)NN
- IC50 (HUVEC [1]): > 100 µM

Structure (SMILES): CCNC(=O)[C@]1(C)[C@@H]2CC[C@]3(C)[C@H](C(=O)C=C4[C@@H]5[C@@H](C)[C@H](C)CC[C@]5(C)CC[C@]43C)[C@@]2(C)CC[C@H]1OC(C)=O
- IC50 (HUVEC [1]): > 100 µM

Structure (SMILES): CC(=O)n1ncc2c1[C@](C)(C(=O)O)[C@@H]1CC[C@]3(C)[C@H](C(=O)C=C4[C@@H]5[C@@H](C)[C@H](C)CC[C@]5(C)CC[C@]43C)[C@@]1(C)C2
- IC50 (HUVEC [1]): 9.27 µM

Structure (SMILES): CCOC(=O)C(=O)O[C@@H]1CC[C@@]2(C)[C@@H](CC[C@]3(C)[C@@H]2C(=O)C=C2[C@@H]4[C@@H](C)[C@H](C)CC[C@]4(C)CC[C@]23C)[C@@]1(C)C(=O)O
- IC50 (HUVEC [1]): > 100 µM

Structure (SMILES): CC(=O)O[C@@H]1CC[C@@]2(C)[C@@H](CC[C@]3(C)[C@@H]2C(=O)C=C2[C@@H]4[C@@H](C)[C@H](C)CC[C@]4(C)CC[C@]23C)[C@@]1(C)C(=O)N1CCNCC1
- Activity (HUVEC [2]): Dose-dependent effect
- IC50 (HUVEC [1]): 2.36 µM

Structure (SMILES): CC(=O)O[C@@H]1CC[C@@]2(C)[C@@H](CC[C@]3(C)[C@@H]2C(=O)C=C2[C@@H]4[C@@H](C)[C@H](C)CC[C@]4(C)CC[C@]23C)[C@@]1(C)C(=O)N1CCOCC1
- IC50 (HUVEC [1]): > 100 µM

Structure (SMILES): CC(=O)O[C@@H]1CC[C@@]2(C)[C@@H](CC[C@]3(C)[C@@H]2C(=O)C=C2[C@@H]4[C@@H](C)[C@H](C)CC[C@]4(C)CC[C@]23C)[C@@]1(C)C(=O)N(C)CCN(C)C
- IC50 (HUVEC [1]): 5.05 µM

Structure (SMILES): CC(=O)O[C@@H]1CC[C@@]2(C)[C@@H](CC[C@]3(C)[C@@H]2C(=O)C=C2[C@@H]4[C@@H](C)[C@H](C)CC[C@]4(C)CC[C@]23C)[C@@]1(C)C(=O)N1CCCNCC1
- IC50 (HUVEC [1]): 2.79 µM

Structure (SMILES): CC(=O)O[C@@H]1CC[C@@]2(C)[C@@H](CC[C@]3(C)[C@@H]2CC=C2[C@@H]4[C@@H](C)[C@H](C)CC[C@]4(C)CC[C@]23C)[C@@]1(C)C(=O)O
- IC50 (HUVEC [1]): > 100 µM

Structure (SMILES): C[C@H]1[C@H](C)CC[C@]2(C)CC[C@]3(C)C(=CC(=O)[C@@H]4[C@@]5(C)CC[C@@H](OC(=O)C(F)(F)F)[C@](C)(C(=O)O)[C@@H]5CC[C@]43C)[C@H]12
- IC50 (HUVEC [1]): 5.13 µM
